Results from the NIST ThermoML archive (doi:10.1021/acs.jced.7b00335).

Key:
[1] = xn = mol fraction of the nth substance listed; settings: 100 kPa, Liquid, x2 = 0; for viscosity: Concentric cylinders viscometry; for mass density: Vibrating tube method
[2] = 100 kPa, Liquid; for viscosity: Concentric cylinders viscometry; for mass density: Vibrating tube method

CCC(C)O (stereo not drawn) [butan-2-ol] + O=Cc1ccccc1
[1]
Settings | mass density [kg/m3] | viscosity [mPa·s]
293.15 K | 806.7 | 3.67
298.15 K | 802.7 | 3.04
303.15 K | 798.4 | 2.54
308.15 K | 794.1 | 2.13
313.15 K | 789.8 | 1.8
318.15 K | 785.2 | 1.54
323.15 K | 780.6 | 1.33

CCCC(C)O (stereo not drawn) [pentan-2-ol]
[2]
Settings | mass density [kg/m3] | viscosity [mPa·s]
293.15 K | 809.3 | 3.97
298.15 K | 805.3 | 3.32
303.15 K | 801.2 | 2.81
308.15 K | 797 | 2.37
313.15 K | 792.7 | 1.99
318.15 K | 788.4 | 1.66
323.15 K | 784 | 1.39

CC(C)O [propan-2-ol]
[2]
Settings | mass density [kg/m3] | viscosity [mPa·s]
293.15 K | 785.4 | 2.42
298.15 K | 781.1 | 2.08
303.15 K | 776.8 | 1.8
308.15 K | 772.4 | 1.56
313.15 K | 768 | 1.36
318.15 K | 763.4 | 1.19
323.15 K | 758.8 | 1.05

CC(C)O [propan-2-ol] + O=Cc1ccccc1
[1]
Settings | mass density [kg/m3] | viscosity [mPa·s]
293.15 K | 785.4 | 2.42
298.15 K | 781.1 | 2.08
303.15 K | 776.8 | 1.8
308.15 K | 772.4 | 1.56
313.15 K | 768 | 1.36
318.15 K | 763.4 | 1.19
323.15 K | 758.8 | 1.05

O=Cc1ccccc1 [benzaldehyde]
[2]
Settings | mass density [kg/m3] | viscosity [mPa·s]
293.15 K | 1046.3 | 1.52
298.15 K | 1041.7 | 1.41
303.15 K | 1037.1 | 1.31
308.15 K | 1032.4 | 1.22
313.15 K | 1027.9 | 1.15
318.15 K | 1023.4 | 1.09
323.15 K | 1019.1 | 1.03

CCC(C)O (stereo not drawn) [butan-2-ol]
[2]
Settings | mass density [kg/m3] | viscosity [mPa·s]
293.15 K | 806.7 | 3.67
298.15 K | 802.7 | 3.04
303.15 K | 798.4 | 2.54
308.15 K | 794.1 | 2.13
313.15 K | 789.8 | 1.8
318.15 K | 785.2 | 1.54
323.15 K | 780.6 | 1.33

CCCC(C)O (stereo not drawn) [pentan-2-ol] + O=Cc1ccccc1
[1]
Settings | mass density [kg/m3] | viscosity [mPa·s]
293.15 K | 809.3 | 3.97
298.15 K | 805.3 | 3.32
303.15 K | 801.2 | 2.81
308.15 K | 797 | 2.37
313.15 K | 792.7 | 1.99
318.15 K | 788.4 | 1.66
323.15 K | 784 | 1.39
